{
  "source": "patent US4418064A",
  "about": "“Chemotherapeutically active maytansinoids: treflorine, trenudine, and N-methyltrenudone” (priority 1982, dated 1983)",
  "key": {"[1]": {"tested_on": "human epidermoid carcinoma of the mouth (KB)", "assay": "cells", "settings": "for IC50: Homo sapiens, KB, 72 h, read-out: ED50; for KB cytotoxicity compared with that reported for maytansine, maytanbutine and others: compared with Kupchan, J. Med. Chem. 21, Table II", "method": "The KB Cell Culture Screen used in guiding the above-described fractionations was conducted in accordance with the National Cancer Institute (NCI) Protocol 1.600 [Geran et al., Cancer Chemother. Rep., Part 3, 3: 17 (1972)] in which the effectiveness of the test compounds against cultivated cells of human epidermoid carcinoma of the mouth was evaluated. […] Such a dose is referred to as ED50 and activity is indicated for ED50 levels of ≤30 μg./ml. The smaller the ED50 level, the more cytotoxic the test material."}, "[2]": {"tested_on": "lymphocytic leukemia P388", "assay": "PS system, lymphocytic leukemia P388 in mice, NCI Protocol 1.200, survival", "assay_type": "in vivo", "settings": "i.p. once a day for 9 days", "method": "Another indication of fraction activity is the effectiveness in the PS system against lymphocytic leukemia P388 in mice. These assays are conducted according to the NCI Protocol 1.200 described in Geran et al., supra. Starting 24 hours after the tumor implantation, previously determined doses of each compound were injected intraperitoneally once a day for 9 days. Survival time of treated leukemic mice is compared to that of untreated mice (T/C×100). A T/C value of 100% indicates no activity. A T/C value greater than 100% means that the treated mice are surviving longer than the control mice. A compound giving a T/C value greater than 125% is indicative of activity as defined by the NCI Protocols, above."}, "[3]": {"tested_on": "B16 melanocarcinoma", "assay": "B1 system, B16 melanocarcinoma in mice, NCI Protocol 1.300", "assay_type": "in vivo", "settings": "i.p. once a day for 9 days, host sex M", "method": "The compounds were also evaluated in the B1 system against B16 melanocarcinoma in mice. This assay is conducted in accordance with the NCI Protocol 1.300 described in Geran et al., supra. Starting 24 hours after the tumor implantation, predetermined doses of the compound were injected intraperitoneally once a day for 9 days. The results are reported in Table VI below as the percent T/C."}, "[4]": {"tested_on": "lymphocytic leukemia P388", "settings": "cited from earlier work; for activity against lymphocytic leukemia P388: at the microgram per kilogram level, Wani et al.; for dosage level at which activity in the PS system was demonstrated: U.S. Pat. No. 4,313,946"}, "[5]": {"tested_on": "leukemia", "settings": "Kupchan et al., J. Org. Chem. 42; cited from earlier work"}, "[6]": {"tested_on": "European corn borer", "settings": "U.S. Pat. No. 4,315,929; cited from earlier work"}, "[7]": {"settings": "4.00 μg./kg./inj., distilled water + alcohol, host sex M"}, "[8]": {"settings": "8.00 μg./kg./inj., distilled water + alcohol, host sex M"}, "[9]": {"settings": "16.00 μg./kg./inj., distilled water + alcohol, host sex M"}, "[10]": {"settings": "32.00 μg./kg./inj., distilled water + alcohol, host sex M"}, "[11]": {"settings": "4.00 μg./kg./inj., distilled water + alcohol"}, "[12]": {"settings": "8.00 μg./kg./inj., distilled water + alcohol"}, "[13]": {"settings": "16.00 μg./kg./inj., distilled water + alcohol"}, "[14]": {"settings": "32.00 μg./kg./inj., distilled water + alcohol"}},
  "data": [
    {"smiles": "COc1cc2cc(c1Cl)N1CC(=O)C(C)(O)C(=O)N(C)C(C)C(=O)O[C@@H](CC1=O)[C@]1(C)O[C@H]1[C@H](C)[C@@H]1C[C@@](O)(NC(=O)O1)[C@H](OC)/C=C/C=C(\\C)C2OC", "note": "(some centres unmarked) [N-methyltrenudone]", "values": [
      {"measurement": "IC50", "setting": "[1]", "value": "< 10", "unit": "ng/mL"},
      {"measurement": "T/C (%)", "setting": "[2]; [7]", "value": 153, "unit": "%"},
      {"measurement": "T/C (%)", "setting": "[2]; [8]", "value": 108, "unit": "%"},
      {"measurement": "T/C (%)", "setting": "[2]; [9]", "value": "toxic"},
      {"measurement": "T/C (%)", "setting": "[2]; [10]", "value": "toxic"},
      {"measurement": "T/C (%)", "setting": "[3]; [11]", "value": 109, "unit": "%"},
      {"measurement": "T/C (%)", "setting": "[3]; [12]", "value": 93, "unit": "%"},
      {"measurement": "T/C (%)", "setting": "[3]; [13]", "value": 111, "unit": "%"},
      {"measurement": "T/C (%)", "setting": "[3]; [14]", "value": 95, "unit": "%"}
    ]},
    {"smiles": "COc1cc2cc(c1Cl)N(C)C(=O)C[C@H](OC(=O)[C@H](C)N(C)C(=O)C(C)C)[C@]1(C)O[C@H]1[C@H](C)[C@@H]1C[C@@](O)(NC(=O)O1)[C@H](OC)/C=C/C=C(\\C)C2OC(C)=O", "note": "(some centres unmarked) [colubrinol acetate]", "values": [
      {"measurement": "activity against lymphocytic leukemia P388", "setting": "[4]", "value": "demonstrated activity"}
    ]},
    {"smiles": "COc1cc2cc(c1Cl)N(C)C(=O)C[C@H](OC(=O)[C@H](C)N(C)C(=O)C(C)C)[C@]1(C)O[C@H]1[C@H](C)[C@@H]1C[C@@](O)(NC(=O)O1)[C@H](OC)/C=C/C=C(\\C)C2O", "note": "(some centres unmarked) [colubrinol]", "values": [
      {"measurement": "activity against lymphocytic leukemia P388", "setting": "[4]", "value": "demonstrated activity"}
    ]},
    {"smiles": "C=C(C)C(=O)N(C)[C@@H](C)C(=O)O[C@H]1CC(=O)N(C)c2cc(cc(OC)c2Cl)C(OC)/C(C)=C/C=C/[C@@H](OC)[C@@]2(O)C[C@H](OC(=O)N2)[C@@H](C)[C@@H]2O[C@@]12C", "note": "(some centres unmarked) [dehydrotrewiasine]", "values": [
      {"measurement": "dosage level at which activity in the PS system was demonstrated", "setting": "[4]", "value": 4, "unit": "µg/kg"}
    ]},
    {"smiles": "COc1cc2cc(c1Cl)N(C)C(=O)C[C@H](OC(=O)C(C)C)[C@]1(C)O[C@H]1[C@H](C)[C@@H]1C[C@@](O)(NC(=O)O1)[C@H](OC)/C=C/C=C(\\C)C2OC(C)=O", "note": "(some centres unmarked) [maytanbutacine]", "values": [
      {"measurement": "antileukemic activity", "setting": "[5]", "value": "antileukemic principle"}
    ]},
    {"smiles": "COc1cc2cc(c1Cl)N1CCC(C)(O)C(=O)NC(C)C(=O)O[C@@H](CC1=O)[C@]1(C)O[C@H]1[C@H](C)[C@@H]1C[C@@](O)(NC(=O)O1)[C@H](OC)/C=C/C=C(\\C)C2OC", "note": "(some centres unmarked) [treflorine]", "values": [
      {"measurement": "IC50", "setting": "[1]", "value": 0.27, "unit": "ng/mL"},
      {"measurement": "KB cytotoxicity compared with that reported for maytansine, maytanbutine and others", "setting": "[1]", "value": "at least one order of magitude less"},
      {"measurement": "T/C (%)", "setting": "[2]; [7]", "value": 150, "unit": "%"},
      {"measurement": "T/C (%)", "setting": "[2]; [8]", "value": 144, "unit": "%"},
      {"measurement": "T/C (%)", "setting": "[2]; [9]", "value": 157, "unit": "%"},
      {"measurement": "T/C (%)", "setting": "[2]; [10]", "value": 150, "unit": "%"},
      {"measurement": "T/C (%)", "setting": "[3]; [11]", "value": 130, "unit": "%"},
      {"measurement": "T/C (%)", "setting": "[3]; [12]", "value": 160, "unit": "%"},
      {"measurement": "T/C (%)", "setting": "[3]; [13]", "value": 162, "unit": "%"},
      {"measurement": "T/C (%)", "setting": "[3]; [14]", "value": 178, "unit": "%"}
    ]},
    {"smiles": "COc1cc2cc(c1Cl)N1CC(O)C(C)(O)C(=O)NC(C)C(=O)O[C@@H](CC1=O)[C@]1(C)O[C@H]1[C@H](C)[C@@H]1C[C@@](O)(NC(=O)O1)[C@H](OC)/C=C/C=C(\\C)C2OC", "note": "(some centres unmarked) [trenudine]", "values": [
      {"measurement": "IC50", "setting": "[1]", "value": 0.64, "unit": "ng/mL"},
      {"measurement": "KB cytotoxicity compared with that reported for maytansine, maytanbutine and others", "setting": "[1]", "value": "at least one order of magitude less"},
      {"measurement": "T/C (%)", "setting": "[2]; 2.00 μg./kg./inj., distilled water + alcohol, host sex F", "value": 144, "unit": "%"},
      {"measurement": "T/C (%)", "setting": "[2]; 4.00 μg./kg./inj., distilled water + alcohol, host sex F", "value": 137, "unit": "%"},
      {"measurement": "T/C (%)", "setting": "[2]; 8.00 μg./kg./inj., distilled water + alcohol, host sex F", "value": 146, "unit": "%"},
      {"measurement": "T/C (%)", "setting": "[2]; 16.00 μg./kg./inj., distilled water + alcohol, host sex F", "value": 137, "unit": "%"},
      {"measurement": "T/C (%)", "setting": "[2]; 32.00 μg./kg./inj., distilled water + alcohol, host sex F", "value": "toxic"},
      {"measurement": "T/C (%)", "setting": "[3]; 1.00 μg./kg./inj., distilled water + alcohol", "value": 137, "unit": "%"},
      {"measurement": "T/C (%)", "setting": "[3]; 2.00 μg./kg./inj., distilled water + alcohol", "value": 147, "unit": "%"},
      {"measurement": "T/C (%)", "setting": "[3]; [11]", "value": 145, "unit": "%"},
      {"measurement": "T/C (%)", "setting": "[3]; [12]", "value": 176, "unit": "%"},
      {"measurement": "T/C (%)", "setting": "[3]; [13]", "value": 197, "unit": "%"},
      {"measurement": "T/C (%)", "setting": "[3]; [14]", "value": "toxic"}
    ]},
    {"smiles": "COc1cc2cc(c1Cl)N(C)C(=O)C[C@H](OC(=O)[C@H](C)N(C)C(=O)C(C)C)[C@]1(C)O[C@H]1[C@H](C)[C@@H]1C[C@@](O)(NC(=O)O1)[C@H](OC)/C=C/C=C(\\C)C2OC", "note": "(some centres unmarked) [trewiasine, reference compound]", "values": [
      {"measurement": "ED50", "setting": "[1]; dose that inhibits growth to 50% of control, 3 days after drug addition", "value": 0.2, "unit": "ng/mL"},
      {"measurement": "T/C (%)", "setting": "[2]; 4.00 μg./kg./inj., vehicle Klucel, host sex F", "value": 163, "unit": "%"},
      {"measurement": "T/C (%)", "setting": "[2]; 8.00 μg./kg./inj., vehicle Klucel, host sex F", "value": 140, "unit": "%"},
      {"measurement": "T/C (%)", "setting": "[2]; 16.00 μg./kg./inj., vehicle Klucel, host sex F", "value": 154, "unit": "%"},
      {"measurement": "T/C (%)", "setting": "[2]; 32.00 μg./kg./inj., vehicle Klucel, host sex F", "value": 128, "unit": "%"},
      {"measurement": "T/C (%)", "setting": "[2]; 64.00 μg./kg./inj., vehicle Klucel, host sex F", "value": 91, "unit": "%"},
      {"measurement": "T/C (%)", "setting": "[3]; 1.00 μg./kg./inj., vehicle Klucel", "value": 133, "unit": "%"},
      {"measurement": "T/C (%)", "setting": "[3]; 2.00 μg./kg./inj., vehicle Klucel", "value": 140, "unit": "%"},
      {"measurement": "T/C (%)", "setting": "[3]; 4.00 μg./kg./inj., vehicle Klucel", "value": 157, "unit": "%"},
      {"measurement": "T/C (%)", "setting": "[3]; 8.00 μg./kg./inj., vehicle Klucel", "value": 185, "unit": "%"},
      {"measurement": "T/C (%)", "setting": "[3]; 16.00 μg./kg./inj., vehicle Klucel", "value": 172, "unit": "%"},
      {"measurement": "T/C (%)", "setting": "[3]; 32.00 μg./kg./inj., vehicle Klucel", "value": 183, "unit": "%"},
      {"measurement": "dosage level at which activity in the PS system was demonstrated", "setting": "[4]", "value": 4, "unit": "µg/kg"},
      {"measurement": "control of the European corn borer", "setting": "[6]", "value": "effective in controlling the European corn borer"}
    ]}
  ]
}
